Source: PubChem BioAssay AID1963850 (Molecular Pharmacology Branch, DTP, NCI, 2024)

System: 192522-019-R-J2-PDC complex tumor spheroid viability
Assay: Anticancer human tumor 192522-019-R-J2-PDC patient-derived colon adenocarcinoma cell line growth inhibition [POLQ]
Settings: for IC50: curve of first compound; for viability, T/C: stronger effect = lower value
Outline: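 PDC + HUVEC + MSC complex spheroids; POLQ inhibitors ± partner drugs; top conc. at/near clinical Cmax, else 10 microM (SN-38 1 microM), half-log dilutions; 37 degrees C, 5% CO2.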

[1] = second compound 0.0316 µM, first compound 0.0316 µM
[2] = second compound 0.0316 µM, first compound 0.1 µM
[3] = second compound 0.0316 µM, first compound 0.316 µM
[4] = second compound 0.0316 µM, first compound 1 µM
[5] = second compound 0.0316 µM, first compound 3.16 µM
[6] = second compound 0.0316 µM, first compound 10 µM
[7] = second compound 0.1 µM, first compound 0.0316 µM
[8] = second compound 0.1 µM, first compound 0.1 µM
[9] = second compound 0.1 µM, first compound 0.316 µM
[10] = second compound 0.1 µM, first compound 1 µM
[11] = second compound 0.1 µM, first compound 3.16 µM
[12] = second compound 0.1 µM, first compound 10 µM
[13] = second compound 0.316 µM, first compound 0.0316 µM
[14] = second compound 0.316 µM, first compound 0.1 µM
[15] = second compound 0.316 µM, first compound 0.316 µM
[16] = second compound 0.316 µM, first compound 1 µM
[17] = second compound 0.316 µM, first compound 3.16 µM
[18] = second compound 0.316 µM, first compound 10 µM
[19] = second compound 1 µM, first compound 0.0316 µM
[20] = second compound 1 µM, first compound 0.1 µM
[21] = second compound 1 µM, first compound 0.316 µM
[22] = second compound 1 µM, first compound 1 µM
[23] = second compound 1 µM, first compound 3.16 µM
[24] = second compound 1 µM, first compound 10 µM
[25] = second compound 3.16 µM, first compound 0.0316 µM
[26] = second compound 3.16 µM, first compound 0.1 µM
[27] = second compound 3.16 µM, first compound 0.316 µM
[28] = second compound 3.16 µM, first compound 1 µM
[29] = second compound 3.16 µM, first compound 3.16 µM
[30] = second compound 3.16 µM, first compound 10 µM
[31] = second compound 10 µM, first compound 0.0316 µM
[32] = second compound 10 µM, first compound 0.1 µM
[33] = second compound 10 µM, first compound 0.316 µM
[34] = second compound 10 µM, first compound 1 µM
[35] = second compound 10 µM, first compound 3.16 µM
[36] = second compound 10 µM, first compound 10 µM
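Note: spheroids exposed to drugs for seven days before reading.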
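Throughout, for viability, T/C: 100% = DMSO vehicle control viability in luminescence.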

`O=C(Nc1ccc(O)c(NS(=O)(=O)c2ccc(F)cc2)c1)c1ccc(-c2ccccc2)cc1` + COC1C(OC(N)=O)C(O)C(Oc2ccc3c(O)c(NC(=O)c4ccc(O)c(CC=C(C)C)c4)c(=O)oc3c2C)OC1(C)C showed an IC50 (second compound 0.0316 µM) greater than 10 µM, an IC50 (second compound 0.1 µM) greater than 10 µM and an IC50 (second compound 0.316 µM) greater than 10 µM. It also gave an IC50 (second compound 1 µM) greater than 10 µM, an IC50 (second compound 3.16 µM) greater than 10 µM and an IC50 (second compound 10 µM) greater than 10 µM. For the same molecule, the viability, T/C [1] was 109%, the viability, T/C [2] was 97.3% and the viability, T/C [3] was 95.8%. It also gave a viability, T/C [4] of 92.1%, a viability, T/C [5] of 93% and a viability, T/C [6] of 101%. For the same molecule, the viability, T/C [7] was 105%, the viability, T/C [8] was 88.9% and the viability, T/C [9] was 97.5%. For the same molecule, the viability, T/C [10] was 102%, the viability, T/C [11] was 95.5% and the viability, T/C [12] was 104%. The viability, T/C [13] was 103%, the viability, T/C [14] was 89.6% and the viability, T/C [15] was 98.3%. The viability, T/C [16] was 93.5%, the viability, T/C [17] was 94.7% and the viability, T/C [18] was 96.6%. The viability, T/C [19] was 95.7%, the viability, T/C [20] was 93.3% and the viability, T/C [21] was 111%. It also gave a viability, T/C [22] of 105%, a viability, T/C [23] of 95.5% and a viability, T/C [24] of 94.3%. For the same molecule, the viability, T/C [25] was 104%, the viability, T/C [26] was 103% and the viability, T/C [27] was 95.7%. For the same molecule, the viability, T/C [28] was 105%, the viability, T/C [29] was 108% and the viability, T/C [30] was 102%. The viability, T/C [31] was 95.9%, the viability, T/C [32] was 98.2% and the viability, T/C [33] was 120%. For the same molecule, the viability, T/C [34] was 97.6%, the viability, T/C [35] was 113% and the viability, T/C [36] was 105%.
`Nc1ccn(C2OC(CO)C(O)C2(F)F)c(=O)n1` (stereo not drawn) + Nc1ccc(C#CCN(C(=O)Cc2ncc(C(F)(F)F)cc2C(F)(F)F)c2ccc(F)cc2)nn1 was tested, and the IC50 (second compound 0.0316 µM) was greater than 10 µM, the IC50 (second compound 0.1 µM) was greater than 10 µM and the IC50 (second compound 0.316 µM) was greater than 10 µM. The IC50 (second compound 1 µM) was greater than 10 µM, the IC50 (second compound 3.16 µM) was greater than 10 µM and the IC50 (second compound 10 µM) was greater than 10 µM. For the same molecule, the viability, T/C [1] was 100%, the viability, T/C [2] was 96.1% and the viability, T/C [3] was 80.6%. It also gave a viability, T/C [4] of 80.3%, a viability, T/C [5] of 76.3% and a viability, T/C [6] of 69.5%. It also gave a viability, T/C [7] of 102%, a viability, T/C [8] of 94% and a viability, T/C [9] of 81%. The viability, T/C [10] was 76.8%, the viability, T/C [11] was 80.9% and the viability, T/C [12] was 66.8%. It also gave a viability, T/C [13] of 112%, a viability, T/C [14] of 90.9% and a viability, T/C [15] of 82.2%. It also gave a viability, T/C [16] of 80.4%, a viability, T/C [17] of 83.5% and a viability, T/C [18] of 69.7%. It also gave a viability, T/C [19] of 105%, a viability, T/C [20] of 94.7% and a viability, T/C [21] of 88.4%. For the same molecule, the viability, T/C [22] was 82.9%, the viability, T/C [23] was 82.4% and the viability, T/C [24] was 69.8%. For the same molecule, the viability, T/C [25] was 104%, the viability, T/C [26] was 91.4% and the viability, T/C [27] was 85.1%. For the same molecule, the viability, T/C [28] was 82.3%, the viability, T/C [29] was 83.8% and the viability, T/C [30] was 71.4%. It also gave a viability, T/C [31] of 109%, a viability, T/C [32] of 98.5% and a viability, T/C [33] of 95.3%. It also gave a viability, T/C [34] of 84.6%, a viability, T/C [35] of 84.4% and a viability, T/C [36] of 72.2%.
`CCc1cc2c(N3CCc4c(cc(Cn5ccnc5)cc4-c4cn(C)nc4C(F)(F)F)C3=O)cc(C)nc2c(OC)n1` + Cc1cccc(N(C)C(=O)C2C(O)CCN2c2nc(C)cc(C(F)(F)F)c2C#N)c1 gave an IC50 (second compound 0.0316 µM) greater than 10 µM, an IC50 (second compound 0.1 µM) greater than 10 µM and an IC50 (second compound 0.316 µM) greater than 10 µM. It also gave an IC50 (second compound 1 µM) greater than 10 µM, an IC50 (second compound 3.16 µM) greater than 10 µM and an IC50 (second compound 10 µM) greater than 10 µM. For the same molecule, the viability, T/C [1] was 116%, the viability, T/C [2] was 91.1% and the viability, T/C [3] was 83.4%. For the same molecule, the viability, T/C [4] was 87.9%, the viability, T/C [5] was 72.2% and the viability, T/C [6] was 68.1%. It also gave a viability, T/C [7] of 99.3%, a viability, T/C [8] of 99.4% and a viability, T/C [9] of 88.1%. It also gave a viability, T/C [10] of 78.5%, a viability, T/C [11] of 75.8% and a viability, T/C [12] of 69.6%. For the same molecule, the viability, T/C [13] was 112%, the viability, T/C [14] was 99.1% and the viability, T/C [15] was 85.4%. For the same molecule, the viability, T/C [16] was 79.4%, the viability, T/C [17] was 82.7% and the viability, T/C [18] was 72.7%. The viability, T/C [19] was 102%, the viability, T/C [20] was 94.9% and the viability, T/C [21] was 84.2%. The viability, T/C [22] was 84.6%, the viability, T/C [23] was 78.3% and the viability, T/C [24] was 72.6%. For the same molecule, the viability, T/C [25] was 107%, the viability, T/C [26] was 98.4% and the viability, T/C [27] was 101%. The viability, T/C [28] was 79.8%, the viability, T/C [29] was 82.5% and the viability, T/C [30] was 73.9%. For the same molecule, the viability, T/C [31] was 110%, the viability, T/C [32] was 103% and the viability, T/C [33] was 93.9%. The viability, T/C [34] was 90.1%, the viability, T/C [35] was 86.7% and the viability, T/C [36] was 79.3%.
`O=C(Nc1ccc(O)c(NS(=O)(=O)c2ccc(F)cc2)c1)c1ccc(-c2ccccc2)cc1` + Nc1ccc(C#CCN(C(=O)Cc2ncc(C(F)(F)F)cc2C(F)(F)F)c2ccc(F)cc2)nn1 gave an IC50 (second compound 0.0316 µM) greater than 10 µM, an IC50 (second compound 0.1 µM) greater than 10 µM and an IC50 (second compound 0.316 µM) greater than 10 µM. For the same molecule, the IC50 (second compound 1 µM) was greater than 10 µM, the IC50 (second compound 3.16 µM) was greater than 10 µM and the IC50 (second compound 10 µM) was greater than 10 µM. The viability, T/C [1] was 104%, the viability, T/C [2] was 101% and the viability, T/C [3] was 94.6%. It also gave a viability, T/C [4] of 99.2%, a viability, T/C [5] of 104% and a viability, T/C [6] of 98.3%. For the same molecule, the viability, T/C [7] was 109%, the viability, T/C [8] was 103% and the viability, T/C [9] was 94%. For the same molecule, the viability, T/C [10] was 87.9%, the viability, T/C [11] was 102% and the viability, T/C [12] was 103%. For the same molecule, the viability, T/C [13] was 97.2%, the viability, T/C [14] was 101% and the viability, T/C [15] was 94.9%. For the same molecule, the viability, T/C [16] was 105%, the viability, T/C [17] was 105% and the viability, T/C [18] was 100%. It also gave a viability, T/C [19] of 110%, a viability, T/C [20] of 98.2% and a viability, T/C [21] of 97.5%. The viability, T/C [22] was 91.6%, the viability, T/C [23] was 101% and the viability, T/C [24] was 102%. It also gave a viability, T/C [25] of 99.4%, a viability, T/C [26] of 106% and a viability, T/C [27] of 102%. For the same molecule, the viability, T/C [28] was 110%, the viability, T/C [29] was 107% and the viability, T/C [30] was 111%. The viability, T/C [31] was 103%, the viability, T/C [32] was 103% and the viability, T/C [33] was 109%. For the same molecule, the viability, T/C [34] was 107%, the viability, T/C [35] was 111% and the viability, T/C [36] was 103%.
